The text below walks through data of PubChem BioAssay AID449764 (Southern Research Specialized Biocontainment Screening …, 2010).

The experiment relates to Mycobacterium tuberculosis H37Rv growth inhibition, no glycerol. Kind of experiment: Mycobacterium tuberculosis H37Rv growth inhibition, no glycerol, confirmatory dose response (AID 449764).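 On all read-outs here: growth read after 7 days of incubation.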 The settings on record: for IC90: measured here: IC90 growth inhibition.

pIC50: −log10 of the molar value. Where only a bound is given, the exact number is not on record here.

The term pIC50 denotes the negative decadic logarithm of the IC50, by convention in mol/L. As a reminder, the IC90 is the concentration needed for an effect of 90%. A higher IC90 goes with a need for much substance. As to `CC(Oc1ccc(F)cc1)C(=O)Nc1sc2c(c1C(=O)NCc1cccnc1)CCCC2` (stereo unspecified), the pIC50 was 4.36 and the IC90 is 86 µM.
For `CN1/C(=C/C(=O)c2nc(S(C)(=O)=O)ncc2Cl)C(C)(C)c2ccccc21`, in that order: 5.17 and 13.1 µM.
In the case of `CN1CCN(Cc2nc3ccccc3c(=O)n2Cc2nc(-c3ccc4ccccc4c3)cs2)CC1`, the pIC50 is 4.68 and the IC90 stood at 28.5 µM.
In the same order, the values of `Cc1nonc1OCCNCCNc1ccc([N+](=O)[O-])c2cccnc12` are 4.75 and 31.4 µM.
Consider `COc1cc(C#Cc2c(-c3cncn3C)n(C)c3ccc(-c4cnc(N5CCOCC5)nc4)cc23)cc(OC)c1`, for which the pIC50 is 4.31 and the IC90 is 55 µM.
On to `COC(=O)c1ccc(C(=O)OC)c(NC(=O)CSc2cccc[n+]2[O-])c1`, for which the pIC50 is 5.24 and the IC90 was 6.25 µM.
For the molecule `Cc1ccc2[nH]c3c(N4CCN(Cc5ccccc5)CC4)ncnc3c2c1`, the pIC50 is 4.60 and the IC90 came out at 46 µM.
On to `COc1cc(N=Nc2ccc3ccccc3c2)ccc1O`, for which the pIC50 was 4.40 and the IC90 was 59.1 µM.
`c1ccc2c(c1)CCN(c1nc(CN3CCOCC3)nc3sc4c(c13)CCCC4)C2`: the pIC50 was 4.34 and the IC90 came to 52.7 µM.
Take `CNc1ccc2nc3ccccc3[n+](C)c2c1`: the negative-log IC50 (pIC50) is 5.94 and the IC90 was 1.68 µM.
For `CCOC(=O)c1ccc(-c2c(-c3ccc4c(c3)OCO4)noc2C)cc1F`, in that order: 4.27 and greater than 100 µM.
For `C=CC[n+]1ccn(-c2nc3ccccc3nc2[N-]S(=O)(=O)c2cccs2)c1`, in that order: 4.37 and 48.1 µM.
In the same order, the values of `Cc1ccc(C)c(NNC(N)=S)c1` are 4.80 and 29.2 µM.
Take `CCN(CC)c1ccc2c(Cl)c(Br)c(=O)oc2c1`: the negative logarithm of the IC50 (pIC50) was 4.65 and the IC90 is 61.6 µM.
For `COc1ccc(-c2oc(NC(=O)CCl)c(C#N)c2-c2ccc(OC)cc2)cc1`, in that order: 4.37 and 61.7 µM.
In the same order, the values of `O=C(C[C@@H]1C/C=C\C[C@H](NC(=O)OCC2c3ccccc3-c3ccccc32)C(=O)OC[C@H]2CCCN2C1=O)N[C@@H](CO)Cc1ccccc1` are 4.56 and 37.2 µM.
In the same order, the values of `O=C(Nc1cccc(-c2nc3ccccc3s2)c1)c1cc(-n2cnnc2)ccc1Cl` are 4.85 and 22 µM.
In the case of `CN(C)c1ccc(-c2cc(O)c3ncccc3c2)cc1`, the pIC50 was 5.58 and the IC90 amounted to 3.53 µM.
For `CC(C)OC(=O)c1ccc(COC(=O)c2cnccn2)cc1`, in that order: 4.75 and greater than 100 µM.
In the same order, the values of `Cn1c(NC(=S)Nc2ccccc2)nc2ccccc21` are 5.24 and 6.33 µM.
On to `Cc1cc(C)n(-c2ccc(C(=O)Oc3ccc4c(c3)OCO4)cc2)n1`, for which the pIC50 was 4.93 and the IC90 was greater than 100 µM.
In the same order, the values of `Oc1[nH]c2ccccc2c1N=NC(=S)N1CCOCC1` are 4.64 and 24.3 µM.
Turning to `C/C(=N\Nc1ccc([N+](=O)[O-])cc1)c1cccc(N)c1`, the pIC50 is 4.21 and the IC90 worked out at 88.9 µM.
In the same order, the values of `CC(C)(O)C#Cc1ccc(C(=O)Nc2ccc3c(c2)OCO3)s1` are 4.37 and greater than 100 µM.
In the same order, the values of `COc1ccc(C(=O)Cn2nc(CNc3ccc(Br)cc3)[n+]3c2CCCCC3)cc1` are 4.91 and 14.1 µM.
For `CCCCOC(=O)NS(=O)(=O)c1sc(CC(C)C)cc1-c1ccc(Cn2c(CC)nc3c(C)cc(C)nc32)cc1`, in that order: 4.51 and 47.2 µM.
Regarding `CC(=O)C1=C(C)NC(SCC(=O)c2ccc(F)cc2)=C(C#N)C1c1ccco1` (stereo unspecified), the pIC50 was 4.49 and the IC90 is 49.8 µM.
Consider `Cc1ccccc1Cn1cc(NC(=O)c2noc(C(C)C)c2[N+](=O)[O-])cn1`, for which the pIC50 is 5.30 and the IC90 stood at 8.45 µM.
For `C=C(C)C1CC=C(CN2CCN(Cc3ccccc3)CC2)CC1` (stereo unspecified), the pIC50 is 4.75 and the IC90 was 22 µM.
Regarding `O=C1C(Br)=Cc2cccc3cccc1c23`, the pIC50 was greater than 6.70 and the IC90 was less than 0.2 µM.
For the molecule `O=C(OCC(=O)N1CCN(c2ccccc2)CC1)c1cnc(Cl)c(Cl)c1`, the pIC50 was 4.57 and the IC90 was determined as 58.1 µM.
On to `Cc1ccc(C(C)C)c(OCC(=O)OCc2c(C)noc2C)c1`, for which the pIC50 is 5.33 and the IC90 is 6.88 µM.
For `Nc1c2c(nc3sc4c(c13)CCCCC4)CCCC2`, in that order: 5.51 and 8.41 µM.
As for `CCOc1cc(NC(=O)CCl)c(OCC)cc1NC(C)=O`, the pIC50 is 6.02 and the IC90 amounted to 51.8 µM.
For `COc1cc(/C=N/n2c(-c3ccc4c(c3)NC(=O)CO4)csc2=Nc2cccc(C)c2)ccc1O`, in that order: 4.42 and greater than 100 µM.
For `COC(=O)CSc1nnc(CNc2ccc(Cl)cc2)n1-c1ccccc1`, the pIC50 was 4.65 and the IC90 is 25.3 µM.
In the same order, the values of `FC(F)(F)c1cc(CO[C@@H]2CCCN[C@@H]2c2ccccc2)cc(C(F)(F)F)c1` are 4.56 and 38.2 µM.
For `CC(C)(C)c1cc(-c2nc(N)nc(N)n2)c(O)c(C(C)(C)C)c1`, in that order: 4.04 and 96 µM.
For `O=[N+]([O-])c1ccc(-n2cnc3ccccc32)c([N+](=O)[O-])c1`, in that order: 4.02 and greater than 100 µM.
As to `Cc1cc(C)nc(Sc2ncnc(N)c2[N+](=O)[O-])n1`, the pIC50 is 4.71 and the IC90 came to 25.5 µM.
In the same order, the values of `COc1ccc(-c2nnn(CC(=O)OC3CCCCC3)n2)cc1OC` are 4.69 and greater than 100 µM.
As to `O=C(CCl)N1CCCC1c1ccc2c(c1)OCCO2` (stereo unspecified), the pIC50 was 5.06 and the IC90 amounted to 14.1 µM.
For `Oc1cccc(-c2nc3ccc4ccccc4c3c3c2CCC3)c1`, in that order: 4.49 and 54.3 µM.
For `c1nc2n(n1)C1=C(CCCC1)C1(CCCCC1)N2`, the pIC50 was 4.53 and the IC90 was 44.3 µM.
As for `CN1C2CCC1/C(=C/c1ccccn1)C(=O)/C2=C\c1ccccn1`, the negative-log IC50 (pIC50) is 4.63 and the IC90 is 26.8 µM.
For `CCOC(=O)CNC(=O)CNC(=O)c1nn(-c2ccc(OC)c(Cl)c2)c(=O)c2ccccc12`, in that order: 4.42 and greater than 100 µM.
In the same order, the values of `Cc1c(Cl)ccc2sc(N3CCN(C(=O)C4=COCCO4)CC3)nc12` are 4.65 and 30.6 µM.
`Cc1cc(N/N=C/c2ccccc2[N+](=O)[O-])nc(-n2nc(C)cc2C)n1`: the pIC50 was 5.47 and the IC90 is 5.14 µM.
For the molecule `CC1(C)Cc2ccccc2C2=NNC(=O)C2=N1`, the pIC50 is 4.95 and the IC90 amounted to 15.1 µM.
As for `CCOC(=O)c1sc2ncnc(NCC(c3cccs3)N(C)C)c2c1C` (stereo unspecified), the pIC50 was 4.38 and the IC90 was determined as 57 µM.
In the same order, the values of `CCCCNC(=S)Nc1ccc2cn[nH]c2c1` are 4.92 and 31.8 µM.
For `CC(C)[C@H](CO)N(Cc1cccc(F)c1)c1nc(Nc2cccc(Cl)c2)c2ncn(C(C)C)c2n1`, in that order: 4.43 and 57.4 µM.
As for `CCOC(=O)Cn1nc(-c2ccccc2)nc1-c1ccccc1`, the pIC50 is 4.88 and the IC90 stood at 29.4 µM.
On to `O=C(Nc1nnc(C2=COCCO2)o1)c1ccc(Cc2ccccc2)cc1`, for which the pIC50 is 4.93 and the IC90 is 20.3 µM.
For the molecule `Cn1ccc(=Nc2ccc(NC(=O)c3ccc(N=c4ccn(C)c5ccc([N+](=O)[O-])cc45)cc3)cc2)cc1`, the pIC50 is greater than 6.70 and the IC90 was less than 0.2 µM.
Take `COc1ccc(CNc2ncnc3c2[nH]c2cc(OC)c(OC)cc23)cc1`: the negative logarithm of the IC50 (pIC50) was 4.09 and the IC90 came to 89.5 µM.
In the same order, the values of `CCN(CCNCC(O)COc1ccccc1C(C)C)c1cccc(C)c1` (stereo unspecified) are 4.64 and 26 µM.
On to `CCc1ccc2oc(-c3cc(N=Cc4cccc(OC)c4O)ccc3O)nc2c1`, for which the pIC50 is 4.19 and the IC90 came to 95 µM.
As to `Cn1c(=O)c2c3c(sc2n2c(SCC(N)=O)nnc12)CC(C(C)(C)C)CC3` (stereo unspecified), the pIC50 was 4.61 and the IC90 stood at 41.7 µM.
The molecule `Cn1c(=O)n(Cc2ccccc2)c(=O)c2c1nc1n2CCCN1C1CCCCC1` returned an IC90 greater than 100 µM.
With `Clc1ccc(-c2[nH]ncc2N=Nc2ccccc2)cc1`, the pIC50 is 4.20 and the IC90 is greater than 100 µM.
In the same order, the values of `CCOc1ccc(NC(=O)CSc2nc(O)c(C)c(=O)n2-c2ccc(F)cc2)cc1` are 4.46 and 59.2 µM.
With `O=C(NC1CCN(Cc2ccccc2)CC1)c1cccc(S(=O)(=O)Nc2ccc(SC(F)F)cc2)c1`, the pIC50 was 4.71 and the IC90 came to 27.9 µM.
In the same order, the values of `CCOC(=O)C1=C(C)Nc2nc(SCC(=O)OC)nn2C1c1cc(F)cc(F)c1` (stereo unspecified) are 5.00 and 12.5 µM.
In the same order, the values of `CCOC(=O)CSc1nsc(SCC(=O)OCC)c1C#N` are 4.92 and 13.5 µM.
Consider `Cc1ccc(Nc2nc(N)nc(CN3CCc4ccccc4C3)n2)cc1`, for which the pIC50 was 5.25 and the IC90 was 18.6 µM.
For the molecule `Oc1ccc(/C=N/NC(=S)N2CCOCC2)cc1`, the negative-log IC50 (pIC50) is 5.22 and the IC90 is 6.83 µM.
`CCOc1ccc(C2c3[nH]c4ccccc4c3C[C@H]3C(=O)N(C4CCN(Cc5ccccc5)CC4)CC(=O)N23)cc1OC` (stereo partly specified): the pIC50 was 4.62 and the IC90 is greater than 100 µM.
Regarding `C#CCOCCOCCOCCNc1nc(N2CCN(C(=O)C(Cc3ccc(O)cc3)n3cc(C(N)CC(C)C)nn3)CC2)nc(N2CCN(C(=O)C(Cc3cc4ccccc4[nH]3)n3cc(C(N)Cc4ccc(O)cc4)nn3)CC2)n1` (stereo unspecified), the pIC50 was 4.77 and the IC90 stood at 23.8 µM.
In the same order, the values of `CN1/C(=C\C(=O)COC(=O)c2ccc([N+](=O)[O-])o2)C(C)(C)c2ccccc21` are 4.68 and 30.3 µM.
Turning to `O=C(CN1CCN(Cc2ccc(Cl)cc2)CC1)N/N=C/C=C/c1ccccc1[N+](=O)[O-]`, the pIC50 was 4.44 and the IC90 came out at 45.6 µM.
